Assay results taken from the supplement of paper PMC9663587.

Legend:
Test in all cases: area over the GR curve, 72 h; higher = more effect;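 note: Dye Drop or Deep Dye Drop imaging of viable cells in 384-well plates (Hoechst nuclei, LIVE/DEAD dye), nine half-log doses, GR normalized to DMSO controls and time-zero plates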
184A1 = test system: 184A1
CAL51 = test system: CAL51
CAL851 = test system: CAL851
CAMA1 = test system: CAMA1
EFM19 = test system: EFM19
HCC1806 = test system: HCC1806
HCC70 = test system: HCC70
HS578T = test system: HS578T
MCF7 = test system: MCF7
SUM229PE = test system: SUM229PE
SUM44PE = test system: SUM44PE
ZR751 = test system: ZR751

Row | SMILES | area over the GR curve (184A1) [GR] | area over the GR curve (CAL51) [GR] | area over the GR curve (CAL851) [GR] | area over the GR curve (CAMA1) [GR] | area over the GR curve (EFM19) [GR] | area over the GR curve (HCC1806) [GR] | area over the GR curve (HCC70) [GR] | area over the GR curve (HS578T) [GR] | area over the GR curve (MCF7) [GR] | area over the GR curve (SUM229PE) [GR] | area over the GR curve (SUM44PE) [GR] | area over the GR curve (ZR751) [GR] | area over the GR curve (CAL51; main component drawn) [GR] | area over the GR curve (CAL851; main component drawn) [GR] | area over the GR curve (CAMA1; main component drawn) [GR] | area over the GR curve (HCC1806; main component drawn) [GR] | area over the GR curve (HCC70; main component drawn) [GR] | area over the GR curve (HS578T; main component drawn) [GR] | area over the GR curve (MCF7; main component drawn) [GR]
1 | C[C@@H]1COCCN1c1cc(C2([S@](C)(=N)=O)CC2)nc(-c2cc[nH]c3nccc2-3)n1 [AZD6738] (max 10 µM) | -0.0342 | 0.103 | 0.071 | -0.0516 | 0.0109 | 0.307 | 0.283 | 0.0772 | 0.179 | 0.0968 | 0.365 | 0.03 |  |  |  |  |  |  | 
2 | NC(=O)Nc1cc(-c2cccc(F)c2)sc1C(=O)N[C@H]1CCCNC1 [AZD7762] (max 10 µM) | -0.0013 | 0.714 | 0.648 | 0.418 | 0.222 | 0.89 | 0.839 | 0.863 | 0.597 | 0.588 | 0.738 | 0.201 |  |  |  |  |  |  | 
3 | Cc1nc(NC(=O)N2CCC[C@H]2C(N)=O)sc1-c1ccnc(C(C)(C)C(F)(F)F)c1 [Alpelisib/BYL719] (max 10 µM) | 0.136 | 0.149 | 0.194 | 0.0106 | 0.445 | 0.0386 | 0.112 | 0.0905 | 0.326 | 0.128 | 0.33 | 0.0495 |  |  |  |  |  |  | 
4 | CN(C)C/C=C/C(=O)Nc1ccc(O[C@@H]2CCC[C@@H](Nc3ncc(Cl)c(-c4c[nH]c5ccccc45)n3)C2)cc1 [BSJ-01-175] (max 10 µM) | 1.15 | 0.434 | 0.822 | 0.68 | 0.3 | 0.581 | 1.07 | 1.07 | 1.19 | 0.745 | 1.27 | 0.189 |  |  |  |  |  |  | 
5 | CC(=O)c1c(C)c2cnc(Nc3ccc(N4CCN(CCOCCOCCOCCNC(=O)COc5cccc6c5C(=O)N(C5CCC(=O)NC5=O)C6=O)CC4)cn3)nc2n(C2CCCC2)c1=O (centres undefined) [BSJ-03-123] (max 10 µM) | 0.708 | 0.187 | 0.405 | 0.658 | 0.318 | 0.21 | 0.181 | 0.298 | 0.306 | 0.286 | 0.284 | 0.267 |  |  |  |  |  |  | 
6 | CC(C)Nc1cc(-c2c[nH]c(C(=O)N[C@H](CO)c3cccc(Cl)c3)c2)c(Cl)cn1 [BVD523] (max 10 µM) | 0.704 | 0.0561 | 0.2 | 0.241 | 0.0226 | 0.0314 | 0.296 | 0.316 | 0.192 | 0.279 | 0.218 | 0.122 |  |  |  |  |  |  | 
7 | Cc1c(N)nc([C@H](CC(N)=O)NC[C@H](N)C(N)=O)nc1C(=O)N[C@H](C(=O)N[C@H](C)[C@@H](O)[C@H](C)C(=O)N[C@H](C(=O)NCCc1nc(-c2nc(C(=O)NCCC[S+](C)C)cs2)cs1)[C@@H](C)O)[C@@H](OC1OC(CO)C(O)C(O)C1OC1OC(CO)C(O)C(OC(N)=O)C1O)c1cnc[nH]1 (some centres undefined) [Bleomycin] (max 10 µM) |  |  |  |  |  |  |  |  |  |  |  |  | 0.485 | 0.385 | 0.274 | 0.117 | 0.419 | 0.446 | 0.555
8 | Nc1cc(C(F)(F)F)c(-c2cc(N3CCOCC3)nc(N3CCOCC3)n2)cn1 [Buparlisib/NVP-BKM120] (max 10 µM) | 0.268 | 0.328 | 0.442 | 0.353 | 0.323 | 0.305 | 0.435 | 0.376 | 0.503 | 0.279 | 0.436 | 0.256 |  |  |  |  |  |  | 
9 | COc1cc2nccc(Oc3ccc(NC(=O)C4(C(=O)Nc5ccc(F)cc5)CC4)cc3)c2cc1OC [Cabozantinib] (max 10 µM) | 0.0128 | 0.0598 | 0.123 | 0.0239 | -0.0111 | -0.021 | 0.255 | 0.134 | 0.107 | 0.0356 | 0.0196 | -0.0852 |  |  |  |  |  |  | 
10 | COc1cc2c(Oc3ccc4[nH]c(C)cc4c3F)ncnc2cc1OCCCN1CCCC1 [Cediranib/AZD2171] (max 10 µM) | 0.0594 | 0.171 | 0.179 | 0.109 | 0.0327 | 0.0606 | 0.0746 | 0.394 | 0.0756 | 0.0369 | -0.0271 | 0.019 |  |  |  |  |  |  | 
11 | Cc1cc(Nc2ncc(Cl)c(Nc3ccccc3S(=O)(=O)C(C)C)n2)c(OC(C)C)cc1C1CCNCC1 [Ceritinib/LDK378] (max 10 µM) | 0.347 | 0.417 | 0.372 | 0.236 | 0.0971 | 0.156 | 0.0676 | 0.305 | 0.457 | 0.0779 | 0.131 | 0.16 |  |  |  |  |  |  | 
12 | N.N.[Cl][Pt][Cl] [Cisplatin] (max 10 µM) |  | 0.214 | 0.221 | 0.328 |  | 0.317 | 0.253 | 0.235 | 0.0631 |  |  |  |  |  |  |  |  |  | 
13 | Cc1nc(Nc2ncc(C(=O)Nc3c(C)cccc3Cl)s2)cc(N2CCN(CCO)CC2)n1 [Dasatinib] (max 10 µM) | 0.264 | 0.516 | 0.57 | 0.152 | 0.685 | 0.63 | 1.06 | 0.71 | 0.483 | 0.529 | 0.128 | 0.687 |  |  |  |  |  |  | 
14 | COc1cccc2c1C(=O)c1c(O)c3c(c(O)c1C2=O)C[C@@](O)(C(=O)CO)C[C@@H]3O[C@H]1C[C@H](N)[C@H](O)[C@H](C)O1 [Doxorubicin] (max 3.162 µM) | 0.706 | 0.795 | 0.848 | 0.843 | 0.448 | 0.628 | 0.775 | 0.801 | 0.636 | 0.453 | 0.629 | 0.497 |  |  |  |  |  |  | 
15 | COc1cc([C@@H]2c3cc4c(cc3[C@@H](O[C@@H]3O[C@@H]5CO[C@@H](C)O[C@H]5[C@H](O)[C@H]3O)[C@H]3COC(=O)[C@H]23)OCO4)cc(OC)c1O [Etoposide] (max 10 µM) |  | 0.467 | 0.406 | 0.571 |  | 0.648 | 0.454 | 0.377 | 0.499 |  |  |  |  |  |  |  |  |  | 
16 | CO[C@H]1C[C@@H]2CC[C@@H](C)[C@@](O)(O2)C(=O)C(=O)N2CCCC[C@H]2C(=O)O[C@H]([C@H](C)C[C@@H]2CC[C@@H](OCCO)[C@H](OC)C2)CC(=O)[C@H](C)/C=C(\C)[C@@H](O)[C@@H](OC)C(=O)[C@H](C)C[C@H](C)/C=C/C=C/C=C/1C [Everolimus] (max 10 µM) | 0.452 | 0.432 | 0.576 | 0.767 | 0.731 | 0.197 | 0.476 | 0.527 | 0.564 | 0.226 | 0.734 | 0.669 |  |  |  |  |  |  | 
17 | CC[C@@]1(O)C(=O)OCc2c1cc1n(c2=O)Cc2cc3c(CN(C)C)c(O)ccc3nc2-1 [Topotecan] (max 10 µM) |  | 0.856 | 0.843 | 1.05 |  | 1.07 | 1.06 | 1.02 | 0.854 |  |  |  |  |  |  |  |  |  | 
